Results published in patent publication US10406218B2 (priority 2014, dated 2019).
Like-named read-outs stand apart in the source and are kept apart here.

Experiments:
Type in all cases: cell-based, human
[1] = system: IL-10 production by cells of HC donors; conditions: for IL-10 SFC: HC donors; for # resp IL-10: number of responding HC donors out of # tested (5 or 6)
[2] = system: IFNγ production by cells of HC donors; assay: IFNγ production (SFC) in HC donors in response to broadly conserved peptides; conditions: for IFNg SFC: HC donors; for # resp IFNg: number of responding HC donors out of # tested (5 or 6)
Method: To test this hypothesis, the HLA binding capacity of the 4241 broadly conserved peptides for common HLA class II alleles was predicted. Next peptides were selected predicted to bind with high affinity to alleles expressed in representative HC donors were tested for IL-10 production. Several frequently recognized IL-10 producing peptides could be identified (FIG. 13A), none of which produced a significant amount of IFNγ (FIG. 13B).

[3] = system: PBMC from 30 HC individuals; assay: ex vivo IFNγ ELISPOT with NTM-specific peptides
CD4+ memory T cells = system: CD4+ memory T cells
[4] = system: T cells of LTBI and HC donors; assay: antigen reactivity in LTBI vs HC donors (LTBI-specific or crossreactive); conditions: response frequency and magnitude in LTBI vs HC donors, FIG. 10
Excerpt: The data herein implies that preexisting immunity and occasional boosting might be provided by exposure to NTMs, in a low MTB-complex exposure population such as the one from the general San Diego area. This might be viewed as desirable, or alternatively contributing an undesired confounding factor in evaluation of vaccination strategies. Regardless, whether or not preexisting, non-TB-complex related reactivity is present in the general population is an important issue has implication for the development of vaccination strategies. To further investigate this issue, epitope reactivity data (Lindestamm-Arlehamn et al, 2012) was mapped back to the specific antigens from which the epitopes were derived. Antigens recognized by 2 or more donors were further categorized as LTBI-specific or crossreactive according to the following criteria; antigens were categorized as LTBI-specific if there was a lack of reactivity in HC individuals, or if the ratio between response frequency and total SFC for LTBI/HC were >4. All other antigens were categorized as crossreactive.

[5] = response frequency among HC donors, NTM-specific peptides (Table 2)
[6] = total spot forming cells, IFNγ ELISPOT, NTM-specific peptides (Table 2)

Substance | IL-10 SFC [1] [SFC] | # resp IL-10 [1] | IFNg SFC [2] [SFC] | # resp IFNg [2] | Resp Freq [3, 5] [%] | Total SFC [3, 6] [SFC] | also measured
YVLFLFTQTVRHRDF [Peptide 3580.0014] | 975 | 4 | 53 | 0 | – | – | –
MVAFMVRYTSGYLCV [Peptide 3580.0017] | 1058 | 4 | 8 | 0 | – | – | –
FAIMFEALFILTTVD [Peptide 3580.0006] | 915 | 5 | 32 | 0 | – | – | –
ESFLFYSGFYLPMYW [Peptide 3580.0002] | 570 | 4 | 8 | 0 | – | – | –
ASGLIFGWLAFLLVF [Peptide 3580.0018] | 652 | 4 | 20 | 0 | – | – | –
ATFAGIYFWFPKMTG [Peptide 3580.0008] | 1328 | 6 | 28 | 0 | – | – | –
DRIAQLLVQRVELVE [Peptide 3580.0009] | 1018 | 5 | 50 | 0 | – | – | –
LPFFSFMTYLIAVPT [Peptide 3580.0007] | 505 | 4 | 22 | 0 | – | – | –
ASCKYMKMITPAALL [Peptide 3580.0015] | 730 | 4 | 32 | 0 | – | – | –
AELTRVRQQVIQLLS [Peptide 3580.0001] | 733 | 4 | 27 | 0 | – | – | –
FTGKPEFVENFFMFI [Peptide 3580.0004] | 622 | 3 | 27 | 0 | – | – | –
AKSVLIFLGIPLLAG [Peptide 3580.0010] | 892 | 4 | 35 | 0 | – | – | –
ASVSKQFTATAILLL [Peptide 3580.0013] | 918 | 4 | 23 | 0 | – | – | –
GRFIALLRIFAGPLA [Peptide 3580.0011] | 1480 | 5 | 52 | 0 | – | – | –
659 (GLLYVPQLATISATF) [Peptide 659] | – | – | – | – | 3 | 38 | –
1452 (TTPHFLVEGAIIAAY) [Peptide 1452] | – | – | – | – | 3 | 43 | –
1134 (TLLTMLWQNLIGNAV) [Peptide 1134] | – | – | – | – | 3 | 47 | –
PLAENYLRLNALGAY [Peptide 1364] | – | – | – | – | 3 | 228 | Resp Freq [3]: 3%; Total SFC [3]: 228 SFC
LAMFAIIFFWTPPHT [Peptide 3580.0016] | 1142 | 5 | 27 | 0 | – | – | –
QWGYRMVLPQLILMP [Peptide 868] | – | – | – | – | 3 | 58 | Resp Freq [3]: 3%; Total SFC [3]: 58 SFC
626 (ARAGFAASGVLHLLV) [Peptide 626] | – | – | – | – | 3 | 48 | –
1284 (NAVLFLASDEARYIT) [Peptide 1284] | – | – | – | – | 3 | 25 | –
LMVLFQYGVALHELE [Peptide 7] | – | – | – | – | 3 | 138 | Resp Freq [3]: 3%; Total SFC [3]: 138 SFC

Substance | IL-10 SFC [1] [SFC] | # resp IL-10 [1] | IFNg SFC [2] [SFC] | # resp IFNg [2] | Resp Freq [3, 5] [%] | Total SFC [3, 6] [SFC] | also measured
RELIRAFWPGALSLV [Peptide 3580.0019] | 422 | 3 | 27 | 0 | – | – | –
SLHMFFHRLGPVLAR [Peptide 329] | – | – | – | – | 7 | 167 | Resp Freq [3]: 7%; Total SFC [3]: 167 SFC
APFISEFLVLLGTFS [Peptide 3580.0005] | 585 | 3 | 15 | 0 | – | – | –
417 (GVVAAIIAYNYPNQL) [Peptide 417] | – | – | – | – | 3 | 28 | –
672 (ASGTLLFKLTPWIVV) [Peptide 672] | – | – | – | – | 3 | 25 | –
424 (AVPNFALTPLLIIWM) [Peptide 424] | – | – | – | – | 3 | 55 | –
691 (LANPGIVSIPLAFIL) [Peptide 691] | – | – | – | – | 3 | 23 | –
47 (VEFFRAVPVLIMMIF) [Peptide 47] | – | – | – | – | 3 | 40 | –
106 (GLSSAWLSLIFAEMI) [Peptide 106] | – | – | – | – | 3 | 55 | –
RFTLLRPLLFTIAYE [Peptide 311] | – | – | – | – | 3 | 477 | Resp Freq [3]: 3%; Total SFC [3]: 477 SFC
FVTYWSFRMMIGLMA [Peptide 3580.0003] | 563 | 4 | 10 | 0 | – | – | –
QAAVVRFQEAANKQK [CFP1052-66] | – | – | – | – | – | – | epitope-specific cells in CD4+ naive subset or CD4+ memory subset of control donors (CD4+ memory T cells): No epitope-specific cells were detected; frequency of epitope-specific CD4+ memory T cells, median (CD4+ memory T cells; 5 LTBI donors, median (interquartile range 0.03-0.33)): 0.09
LSSTEFELLRFLMRN [Peptide 3580.0020] | 1017 | 5 | 33 | 0 | – | – | –
1368 (TMMLSLVWPIASLGF) [Peptide 1368] | – | – | – | – | 3 | 40 | –
841 (PQFLIMPKLIPALIA) [Peptide 841] | – | – | – | – | 3 | 48 | –
645 (PASILILFAPGAPRE) [Peptide 645] | – | – | – | – | 3 | 23 | –
IGQFGIGFYSSFMVA [Peptide 3580.0012] | 468 | 3 | 10 | 0 | – | – | –
787 (DVDIDQLRSFLADKV) [Peptide 787] | – | – | – | – | 3 | 38 | –
387 (RGQFWIWAGANIAPI) [Peptide 387] | – | – | – | – | 3 | 47 | –
Rv3804c: MTB antigen currently included in TB vaccines in clinical development | – | – | – | – | – | – | antigen reactivity category (LTBI-specific or crossreactive) [4]: widely cross-reactive
HEEIQLLANDFSTML [Peptide 446] | – | – | – | – | 3 | 182 | Resp Freq [3]: 3%; Total SFC [3]: 182 SFC
1218 (RTFFRYFPTKESVLF) [Peptide 1218] | – | – | – | – | 3 | 48 | –
